From PubChem BioAssay (NCI)
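Each compound was tested at five concentrations against cells in 96-well plates for 48 hours. GI50 is the concentration that inhibits growth by half. At the TGI there is no net growth.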

Key:
Experiment in all cases: DTP human tumour cell line panel, 48 h
LOX IMVI melanoma = system: LOX IMVI melanoma
HL-60(TB) leukemia = system: HL-60(TB) leukemia
DU-145 prostate = system: DU-145 prostate
PC-3 prostate = system: PC-3 prostate
HOP-62 NSCLC = system: HOP-62 NSCLC
OVCAR-4 ovarian = system: OVCAR-4 ovarian
ACHN renal = system: ACHN renal
A498 renal = system: A498 renal
HCT-116 colon = system: HCT-116 colon
OVCAR-5 ovarian = system: OVCAR-5 ovarian

SMILES	TGI (LOX IMVI melanoma) [µM]	TGI (HL-60(TB) leukemia) [µM]	TGI (DU-145 prostate) [µM]	TGI (PC-3 prostate) [µM]	TGI (HOP-62 NSCLC) [µM]	TGI (OVCAR-4 ovarian) [µM]	TGI (ACHN renal) [µM]	TGI (A498 renal) [µM]	TGI (HCT-116 colon) [µM]	TGI (OVCAR-5 ovarian) [µM]	GI50 (LOX IMVI melanoma) [µM]	GI50 (HL-60(TB) leukemia) [µM]	GI50 (DU-145 prostate) [µM]	GI50 (PC-3 prostate) [µM]	GI50 (HOP-62 NSCLC) [µM]	GI50 (OVCAR-5 ovarian) [µM]	GI50 (OVCAR-4 ovarian) [µM]	GI50 (ACHN renal) [µM]	GI50 (A498 renal) [µM]	GI50 (HCT-116 colon) [µM]
CCOC(=O)NC(OC)(C(F)(F)F)C(F)(F)F	> 100	> 100	> 100	> 100	> 100	> 100	> 100	> 100	> 100	–	–	–	–	–	–	–	–	–	–	–
COc1ccc(C2C(C#N)=C(S)N(C3OC(COC(C)=O)C(OC(C)=O)C(OC(C)=O)C3OC(C)=O)C(c3ccccc3)=C2C(C)=O)cc1 (stereo unspecified)	> 100	> 100	> 100	> 100	> 100	> 100	> 100	> 100	> 100	> 100	–	–	–	–	–	–	–	–	–	–
NC1=Nc2cc(Cl)ccc2Sc2nc3ccccc3n21	> 100	7.49	> 100	> 100	> 100	> 100	> 100	> 100	–	> 100	–	–	–	–	–	–	–	–	–	–
COC1=CC(=O)CC(C)C12Oc1c(Cl)c(OC)cc(OC)c1C2=O (stereo unspecified)	> 100	> 44.1	> 100	> 70.3	> 100	> 100	> 100	> 93.8	> 93.7	> 100	–	–	–	–	–	–	–	–	–	–
C[C@@H]1C(=O)C[C@H]2C(C)(C)CCC[C@]2(C)[C@@]1(O)CCc1ccoc1	> 100	> 100	> 100	> 100	> 100	> 100	> 100	> 100	> 100	> 100	–	–	–	–	–	–	–	–	–	–
Cc1c(N=Nc2ccccc2)c(C)n(C2OC(CO)C(O)C(O)C2O)c(=S)c1C#N (stereo unspecified)	54.8	> 100	> 100	78.6	59.6	> 100	> 100	72.5	46.2	81.5	–	–	–	–	–	–	–	–	–	–
Nc1[nH]nc2nc3ccccc3nc12	> 100	> 100	> 100	> 100	> 100	> 100	> 100	> 100	> 100	> 100	–	–	–	–	–	–	–	–	–	–
CC(C)(C)OC(=O)CN1CCNCCN(CC(=O)OC(C)(C)C)CCNCC1	> 100	> 100	> 100	> 100	> 100	> 100	> 100	> 100	> 100	> 100	–	–	–	–	–	–	–	–	–	–
N=c1c2c(=S)n(-c3ccccc3)c(=S)n(-c3ccccc3)c2nc(SCCN2CCCC2)n1-c1ccccc1	3.46	0.88	3.29	3.3	12.4	7.58	3.26	23.5	4.43	32.1	–	–	–	–	–	–	–	–	–	–
Cc1cc(S(=O)(=O)Nc2nnc3cnc4ccccc4n23)c(S)cc1Cl	> 100	> 100	> 100	> 100	> 100	> 100	> 100	> 100	> 100	> 100	–	–	–	–	–	–	–	–	–	–
O=C(CCC=C(S(=O)(=O)c1ccccc1)S(=O)(=O)c1ccccc1)c1ccccc1	10.3	5.2	25.4	14.2	40.3	63.6	20	31.7	13.9	24	–	–	–	–	–	–	–	–	–	–
CC(=O)Nc1ccc2[nH]c(C(=O)N3CC(CCl)c4c3cc([N+](=O)[O-])c3ccccc43)cc2c1 (stereo unspecified)	> 100	23	> 100	> 100	–	> 100	> 100	4.06	> 100	96.9	–	–	–	–	–	–	–	–	–	–
CC(=O)Oc1c(-c2ccccc2)sc2ccccc12	26.4	39.6	27.9	97.5	45.7	73.4	32	34.5	26.1	61.5	–	–	–	–	–	–	–	–	–	–
Cc1ccc(C2=C(C#N)C(N)OC3=C2COc2ccccc23)cc1 (stereo unspecified)	> 100	> 100	69.1	57.2	34.9	40.7	> 100	50.2	> 100	–	–	–	–	–	–	–	–	–	–	–
COC(=O)c1c(C#N)c(N)nc2c1CCC2	> 100	> 100	> 100	> 100	> 100	> 100	> 100	> 100	> 100	> 100	–	–	–	–	–	–	–	–	–	–
COc1cc(OC)cc(-c2n/c(=C\c3c(O)[nH]c4ccc(OC)cc34)cc3c2=Nc2ccccc2-3)c1	12.8	36.2	10.7	62.2	34.1	5.21	> 100	34	3.16	> 100	3.1	16.6	3.49	20.5	15.6	70.2	2.21	> 100	14.8	1.67
CSc1ccn(C2CC(F)C(CO)O2)c(=O)n1 (stereo unspecified)	> 100	> 100	> 100	> 100	> 100	> 100	> 100	> 100	> 100	> 100	–	–	–	–	–	–	–	–	–	–
